Measurements reported in ChEMBL document CHEMBL1201862, “PubChem BioAssay data set” (2004).
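Five concentrations, 48 hours, 96-well plates. Here, GI50 denotes the concentration required for 50% inhibition of growth.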 The source made the active and inactive calls. Cut-off read from the data, not from the text of the source: active = GI50 up to about 1.1 µM and inactive = higher.

Columns and labels:
Assay in all cases: NCI-60 cell line screen, 48 h
[1] = system: MDA-MB-231
[2] = system: CAKI-1
[3] = system: SF-268
[4] = system: HOP-92
[5] = system: SNB-75
[6] = system: SNB-19
[7] = system: COLO 205
[8] = system: NCI-H522
[9] = system: M14
[10] = system: MDA-N
[11] = system: Hs-578T
[12] = system: MDA-MB-435
[13] = system: MOLT-4
[14] = system: HT-29
[15] = system: NCI/ADR-RES
[16] = system: SN12C
[17] = system: A549
[18] = system: TK-10
[19] = system: SF-295
[20] = system: 786-0
[21] = system: OVCAR-5
[22] = system: ACHN
[23] = system: NCI-H23
[24] = system: NCI-H226
[25] = system: U-251
[26] = system: SK-MEL-28
[27] = system: SK-MEL-5
[28] = system: UACC-62
[29] = system: KM12
[30] = system: EKVX
[31] = system: A498
[32] = system: DU-145
[33] = system: RPMI-8226
[34] = system: PC-3
[35] = system: K562
[36] = system: RXF 393
[37] = system: MCF7
[38] = system: SF-539
[39] = system: NCI-H460
[40] = system: HOP-62
[41] = system: SR
[42] = system: SK-MEL-2
[43] = system: HCT-116
[44] = system: OVCAR-3
[45] = system: LOX IMVI
[46] = system: OVCAR-8
[47] = system: HCT-15
[48] = system: SK-OV-3
[49] = system: T47D
[50] = system: HCC 2998
[51] = system: UO-31
[52] = system: UACC-257
[53] = system: OVCAR-4
[54] = system: Malme-3M
[55] = system: HL-60
[56] = system: IGROV-1
[57] = system: BT-549
[58] = system: CCRF-CEM
[59] = system: SW-620

CC(C)(C)c1cc(OCc2nnc(S)n2N)c(Cl)cc1OCc1nnc(S)n1N
GI50 [1]: 27.5 µM (inactive)
GI50 [2]: > 100 µM (inactive)
GI50 [3]: 45.5 µM (inactive)
GI50 [4]: 28.1 µM (inactive)
GI50 [5]: 44.1 µM (inactive)
GI50 [6]: 42.1 µM (inactive)
GI50 [7]: 42.2 µM (inactive)
GI50 [8]: 35.2 µM (inactive)
GI50 [9]: 51.3 µM (inactive)
GI50 [10]: 41.3 µM (inactive)
GI50 [11]: 43 µM (inactive)
GI50 [12]: 39.5 µM (inactive)
GI50 [13]: 22.6 µM (inactive)
GI50 [14]: 43.9 µM (inactive)
GI50 [15]: > 100 µM (inactive)
GI50 [16]: 28.4 µM (inactive)
GI50 [17]: 52.2 µM (inactive)
GI50 [18]: 52.2 µM (inactive)
GI50 [19]: 43.1 µM (inactive)
GI50 [20]: 59.6 µM (inactive)
GI50 [21]: 63.7 µM (inactive)
GI50 [22]: 63.7 µM (inactive)
GI50 [23]: 42.8 µM (inactive)
GI50 [24]: > 100 µM (inactive)
GI50 [25]: 29.7 µM (inactive)
GI50 [26]: 45.9 µM (inactive)
GI50 [27]: 26.5 µM (inactive)
GI50 [28]: 20.7 µM (inactive)
GI50 [29]: 40.9 µM (inactive)
GI50 [30]: 49.7 µM (inactive)
GI50 [31]: 30.6 µM (inactive)
GI50 [32]: 59 µM (inactive)
GI50 [33]: 29.5 µM (inactive)
GI50 [34]: 28.2 µM (inactive)
GI50 [35]: 37.7 µM (inactive)
GI50 [36]: 26.2 µM (inactive)
GI50 [37]: 38.5 µM (inactive)
GI50 [38]: 48.3 µM (inactive)
GI50 [39]: 24 µM (inactive)
GI50 [40]: 59 µM (inactive)
GI50 [41]: 22.3 µM (inactive)
GI50 [42]: 18.4 µM (inactive)
GI50 [43]: 33 µM (inactive)
GI50 [44]: 32.4 µM (inactive)
GI50 [45]: 34.8 µM (inactive)
GI50 [46]: 50.5 µM (inactive)
GI50 [47]: 55.8 µM
GI50 [48]: > 100 µM (inactive)
GI50 [49]: 30.6 µM (inactive)
GI50 [50]: 31.1 µM (inactive)
GI50 [51]: 63.2 µM (inactive)
GI50 [52]: 33 µM (inactive)
GI50 [53]: 43.3 µM (inactive)
GI50 [54]: 38.1 µM (inactive)
GI50 [55]: 4.19 µM (inactive)
GI50 [56]: 44.9 µM (inactive)
GI50 [57]: 37.5 µM (inactive)
GI50 [58]: 22.9 µM (inactive)
GI50 [59]: 43.2 µM (inactive)

CCN1CN(c2ccccc2)C2(CCN(CC(CC3OCCO3)c3ccc(F)cc3)CC2)C1=O (stereo unspecified)
GI50 [1]: 16.1 µM (inactive)
GI50 [2]: 3.18 µM (inactive)
GI50 [3]: 5.19 µM (inactive)
GI50 [4]: 2.13 µM (inactive)
GI50 [5]: 35.2 µM (inactive)
GI50 [6]: 20.6 µM (inactive)
GI50 [7]: 0.703 µM (active)
GI50 [8]: 12.6 µM (inactive)
GI50 [9]: 5.24 µM (inactive)
GI50 [10]: 8.49 µM (inactive)
GI50 [11]: 29.9 µM (inactive)
GI50 [12]: 14.8 µM (inactive)
GI50 [13]: 4.99 µM (inactive)
GI50 [14]: 1.34 µM (inactive)
GI50 [15]: 10.5 µM (inactive)
GI50 [16]: 14.3 µM (inactive)
GI50 [17]: 5.24 µM (inactive)
GI50 [18]: 7.53 µM (inactive)
GI50 [19]: 5.69 µM (inactive)
GI50 [20]: 8.36 µM (inactive)
GI50 [21]: 6.5 µM (inactive)
GI50 [22]: 3.73 µM (inactive)
GI50 [23]: 12.5 µM (inactive)
GI50 [24]: 13.5 µM (inactive)
GI50 [25]: 14.9 µM (inactive)
GI50 [26]: 19.9 µM (inactive)
GI50 [27]: 4.07 µM (inactive)
GI50 [28]: 18.1 µM (inactive)
GI50 [29]: 10.7 µM (inactive)
GI50 [30]: 6.7 µM (inactive)
GI50 [31]: 3.63 µM (inactive)
GI50 [32]: 4.2 µM (inactive)
GI50 [33]: 10.4 µM (inactive)
GI50 [34]: 22.6 µM (inactive)
GI50 [35]: 32 µM (inactive)
GI50 [36]: 16.2 µM (inactive)
GI50 [37]: 2.26 µM (inactive)
GI50 [38]: 9.53 µM (inactive)
GI50 [39]: 14.7 µM (inactive)
GI50 [40]: 4.23 µM (inactive)
GI50 [41]: 33 µM (inactive)
GI50 [42]: 20.1 µM (inactive)
GI50 [43]: 3.36 µM (inactive)
GI50 [44]: 18.8 µM (inactive)
GI50 [45]: 7.43 µM (inactive)
GI50 [46]: 8.81 µM (inactive)
GI50 [47]: 16.3 µM
GI50 [48]: 39.8 µM (inactive)
GI50 [49]: 5.13 µM (inactive)
GI50 [50]: 9.93 µM (inactive)
GI50 [51]: 26.2 µM (inactive)
GI50 [52]: 2.79 µM (inactive)
GI50 [53]: 13.5 µM (inactive)
GI50 [54]: 19.7 µM (inactive)
GI50 [55]: 17.7 µM (inactive)
GI50 [56]: 6.75 µM (inactive)
GI50 [57]: 21.6 µM (inactive)
GI50 [58]: 3.65 µM (inactive)
GI50 [59]: 6.35 µM (inactive)

Cc1c(F)c(N)c2c(=O)cc(-c3ccc(N)c(F)c3)oc2c1F [AMINOFLAVONE]
GI50 [1]: 18.7 µM (inactive)
GI50 [2]: < 0.0131 µM (active)
GI50 [3]: 23.1 µM (inactive)
GI50 [4]: 23 µM (inactive)
GI50 [5]: 26.7 µM (inactive)
GI50 [6]: 21 µM (inactive)
GI50 [7]: 32.5 µM (inactive)
GI50 [8]: 9.71 µM (inactive)
GI50 [9]: 57.3 µM (inactive)
GI50 [10]: 29.4 µM (inactive)
GI50 [11]: 38.1 µM (inactive)
GI50 [12]: 43.5 µM (inactive)
GI50 [13]: 46.9 µM (inactive)
GI50 [14]: 33.7 µM (inactive)
GI50 [15]: 13.9 µM (inactive)
GI50 [16]: 17.1 µM (inactive)
GI50 [17]: 2.09 µM (inactive)
GI50 [18]: 0.258 µM (active)
GI50 [19]: 15.6 µM (inactive)
GI50 [20]: 14.2 µM (inactive)
GI50 [21]: 0.15 µM (active)
GI50 [22]: 15.7 µM (inactive)
GI50 [23]: 19.6 µM (inactive)
GI50 [24]: 3.52 µM (inactive)
GI50 [25]: 4.2 µM (inactive)
GI50 [26]: 45.1 µM (inactive)
GI50 [27]: 20.4 µM (inactive)
GI50 [28]: 4.73 µM (inactive)
GI50 [29]: 21.9 µM (inactive)
GI50 [30]: 13.7 µM (inactive)
GI50 [31]: 0.366 µM (active)
GI50 [32]: 26.3 µM (inactive)
GI50 [33]: 14.9 µM (inactive)
GI50 [34]: 20.7 µM (inactive)
GI50 [35]: 0.279 µM (active)
GI50 [36]: 17 µM (inactive)
GI50 [37]: 0.0156 µM (active)
GI50 [38]: 14.9 µM (inactive)
GI50 [39]: 0.199 µM (active)
GI50 [40]: 12.7 µM (inactive)
GI50 [41]: 18.7 µM (inactive)
GI50 [42]: 40.6 µM (inactive)
GI50 [43]: 12.1 µM (inactive)
GI50 [44]: 0.458 µM (active)
GI50 [45]: 21.3 µM (inactive)
GI50 [46]: 19.6 µM (inactive)
GI50 [47]: 33.3 µM
GI50 [48]: 17.6 µM (inactive)
GI50 [49]: 0.313 µM (active)
GI50 [50]: 19 µM (inactive)
GI50 [51]: 5.33 µM (inactive)
GI50 [52]: 0.298 µM (active)
GI50 [53]: 18.8 µM (inactive)
GI50 [54]: 33.5 µM (inactive)
GI50 [55]: 44.8 µM (inactive)
GI50 [56]: 0.0723 µM (active)
GI50 [57]: 17.5 µM (inactive)
GI50 [58]: 28 µM (inactive)
GI50 [59]: 0.0305 µM (active)

COC1=CC(=O)c2c(O)c3c(c(O)c2C1=O)CC(C)(O)OC3 (stereo unspecified) [FUSARUBIN]
GI50 [1]: 2.84 µM (inactive)
GI50 [2]: 3.73 µM (inactive)
GI50 [3]: 3.85 µM (inactive)
GI50 [4]: 2.88 µM (inactive)
GI50 [5]: 16.1 µM (inactive)
GI50 [6]: 3.27 µM (inactive)
GI50 [7]: 0.897 µM (active)
GI50 [8]: 2.25 µM (inactive)
GI50 [9]: 1.87 µM (inactive)
GI50 [10]: 1.89 µM (inactive)
GI50 [11]: 2.38 µM (inactive)
GI50 [12]: 1.65 µM (inactive)
GI50 [13]: 2.64 µM (inactive)
GI50 [14]: 2.12 µM (inactive)
GI50 [15]: 2.56 µM (inactive)
GI50 [16]: 3.61 µM (inactive)
GI50 [17]: 1.99 µM (inactive)
GI50 [18]: 10.6 µM (inactive)
GI50 [19]: 3.12 µM (inactive)
GI50 [20]: 5.51 µM (inactive)
GI50 [21]: 4.46 µM (inactive)
GI50 [22]: 2.95 µM (inactive)
GI50 [23]: 2.28 µM (inactive)
GI50 [24]: 15.7 µM (inactive)
GI50 [25]: 3.08 µM (inactive)
GI50 [26]: 6.11 µM (inactive)
GI50 [27]: 1.16 µM (inactive)
GI50 [28]: 2.07 µM (inactive)
GI50 [29]: 3.1 µM (inactive)
GI50 [30]: 5.32 µM (inactive)
GI50 [31]: 9.66 µM (inactive)
GI50 [32]: 3.97 µM (inactive)
GI50 [33]: 6.37 µM (inactive)
GI50 [34]: 2.52 µM (inactive)
GI50 [35]: 3.44 µM (inactive)
GI50 [36]: 4.17 µM (inactive)
GI50 [37]: 1.34 µM (inactive)
GI50 [38]: 3.33 µM (inactive)
GI50 [39]: 1.18 µM (inactive)
GI50 [40]: 3.19 µM (inactive)
GI50 [41]: 5.36 µM (inactive)
GI50 [42]: 1.95 µM (inactive)
GI50 [43]: 2.96 µM (inactive)
GI50 [44]: 0.906 µM (active)
GI50 [45]: 2.59 µM (inactive)
GI50 [46]: 2.34 µM (inactive)
GI50 [47]: 1.58 µM
GI50 [48]: 18.2 µM (inactive)
GI50 [49]: 2.05 µM (inactive)
GI50 [50]: 2.99 µM (inactive)
GI50 [51]: 3.97 µM (inactive)
GI50 [52]: 2.02 µM (inactive)
GI50 [53]: 1.4 µM (inactive)
GI50 [54]: 0.653 µM (active)
GI50 [55]: 2.42 µM (inactive)
GI50 [56]: 1.99 µM (inactive)
GI50 [57]: 6.44 µM (inactive)
GI50 [58]: 1.25 µM (inactive)
GI50 [59]: 3.75 µM (inactive)
